# Experimental data as given in the supplement of paper PMC10307832.
# Compound: C1=CC2=NC=CN=C2C=C1/C=C/3\C(=O)NC(=O)S3 + Cc1nc(NC(=O)N2CCC[C@H]2C(N)=O)sc1-c1ccnc(C(C)(C)C(F)(F)F)c1 [Alpelisib] (partner 2 µM)
# Assay: relative viability (nuclei count vs DMSO), 5 days (fraction); higher = more cells survive
# Settings: first compound 0.02 µM
# Method in brief: (§1)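 Relative viability is defined as nuclei in treated wells over nuclei in vehicle wells. Duplicate plates were run and medians reported. Lung cancer cell lines in 1536-well plates were dosed by pin tool one day after seeding, with one drug or with a fixed anchor-drug dose plus five library-drug doses (not always all listed) in √10 steps, and nuclei were counted after 5 days.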
row,Cell Line,relative viability
1,NCI-H1755,0.878
2,NCI-H2023,0.57
3,HCC-15,0.813
4,NCI-H1793,0.655
5,PC-14,0.959
6,EKVX,0.834
7,LC-2-ad,0.785
8,NCI-H1944,0.856
9,NCI-H1975,0.603
10,RERF-LC-KJ,0.633
11,NCI-H358,0.953
12,NCI-H650,1.08
13,PC-3 [JPC-3],1.07

# Same assay, conditions: first compound 0.06325 µM
row,Cell Line,relative viability
1,NCI-H1755,0.824
2,NCI-H2023,0.609
3,HCC-15,0.923
4,NCI-H1793,0.811
5,PC-14,0.973
6,EKVX,0.78
7,LC-2-ad,0.975
8,NCI-H1944,0.763
9,NCI-H1975,0.778
10,RERF-LC-KJ,0.816
11,NCI-H358,0.955
12,NCI-H650,1.04
13,PC-3 [JPC-3],1.12

# Same assay, conditions: first compound 0.2 µM
row,Cell Line,relative viability
1,NCI-H1755,0.941
2,NCI-H2023,0.587
3,HCC-15,0.884
4,NCI-H1793,0.728
5,PC-14,0.932
6,EKVX,0.869
7,LC-2-ad,0.832
8,NCI-H1944,0.853
9,NCI-H1975,0.63
10,RERF-LC-KJ,0.832
11,NCI-H358,0.87
12,NCI-H650,1.06
13,PC-3 [JPC-3],0.994

# Same assay, conditions: first compound 0.6325 µM
row,Cell Line,relative viability
1,NCI-H1755,0.888
2,NCI-H2023,0.606
3,HCC-15,0.849
4,NCI-H1793,0.709
5,PC-14,0.894
6,EKVX,0.784
7,LC-2-ad,0.812
8,NCI-H1944,0.776
9,NCI-H1975,0.574
10,RERF-LC-KJ,0.786
11,NCI-H358,0.791
12,NCI-H650,1.1
13,PC-3 [JPC-3],0.987

# Same assay, conditions: first compound 2 µM
row,Cell Line,relative viability
1,NCI-H1755,0.896
2,NCI-H2023,0.511
3,HCC-15,0.839
4,NCI-H1793,0.742
5,PC-14,0.863
6,EKVX,0.771
7,LC-2-ad,0.686
8,NCI-H1944,0.8
9,NCI-H1975,0.578
10,RERF-LC-KJ,0.788
11,NCI-H358,0.547
12,NCI-H650,1.02
13,PC-3 [JPC-3],1.03

# Compound: CCN1CCN(c2ccc(Nc3cc(N(C)C(=O)Nc4c(Cl)c(OC)cc(OC)c4Cl)ncn3)cc2)CC1 [BGJ398] + CC(=O)Nc1cccc(-n2c(=O)n(C3CC3)c(=O)c3c(Nc4ccc(I)cc4F)n(C)c(=O)c(C)c32)c1 [Trametinib] (partner 0.02 µM)
# Assay: as above
# Settings: first compound 0.01 µM
# Method in brief: as §1
row,Cell Line,relative viability
1,NCI-H1755,0.723
2,NCI-H2023,0.615
3,HCC-15,0.331
4,NCI-H1793,0.442
5,PC-14,0.762
6,EKVX,0.326
7,LC-2-ad,0.912
8,NCI-H1944,0.371
9,NCI-H1975,0.324
10,RERF-LC-KJ,0.854
11,NCI-H358,0.137
12,NCI-H650,0.927
13,PC-3 [JPC-3],0.75

# Same assay, conditions: first compound 0.03162 µM
row,Cell Line,relative viability
1,NCI-H1755,0.751
2,NCI-H2023,0.566
3,HCC-15,0.401
4,NCI-H1793,0.311
5,PC-14,0.821
6,EKVX,0.336
7,LC-2-ad,0.935
8,NCI-H1944,0.452
9,NCI-H1975,0.515
10,RERF-LC-KJ,0.864
11,NCI-H358,0.127
12,NCI-H650,1.04

# Same assay, conditions: first compound 0.1 µM
row,Cell Line,relative viability
1,NCI-H1755,0.725
2,NCI-H2023,0.473
3,HCC-15,0.378
4,NCI-H1793,0.273
5,PC-14,0.735
6,EKVX,0.368
7,LC-2-ad,0.892
8,NCI-H1944,0.403
9,NCI-H1975,0.391
10,RERF-LC-KJ,0.962
11,NCI-H358,0.134
12,NCI-H650,1.08
13,PC-3 [JPC-3],0.787

# Same assay, conditions: first compound 0.3162 µM
row,Cell Line,relative viability
1,NCI-H1755,0.638
2,NCI-H2023,0.522
3,HCC-15,0.433
4,NCI-H1793,0.305
5,EKVX,0.261
6,LC-2-ad,0.873
7,NCI-H1944,0.387
8,NCI-H1975,0.31
9,RERF-LC-KJ,0.87
10,NCI-H358,0.126
11,NCI-H650,0.963

# Same assay, conditions: first compound 1 µM
row,Cell Line,relative viability
1,NCI-H1755,0.554
2,NCI-H2023,0.541
3,HCC-15,0.393
4,NCI-H1793,0.312
5,PC-14,0.903
6,EKVX,0.359
7,LC-2-ad,0.985
8,NCI-H1944,0.382
9,NCI-H1975,0.25
10,RERF-LC-KJ,0.953
11,NCI-H358,0.148
12,NCI-H650,0.959
13,PC-3 [JPC-3],0.782

# Compound: CCN1CCN(c2ccc(Nc3cc(N(C)C(=O)Nc4c(Cl)c(OC)cc(OC)c4Cl)ncn3)cc2)CC1 [BGJ398] + CCNC(=O)c1noc(-c2cc(C(C)C)c(O)cc2O)c1-c1ccc(CN2CCOCC2)cc1 [Luminespib] (partner 0.01 µM)
# Assay: as above
# Settings: first compound 0.01 µM
# Method in brief: as §1
row,Cell Line,relative viability
1,NCI-H1755,0.498
2,NCI-H2023,0.627
3,HCC-15,0.316
4,NCI-H1793,0.167
5,PC-14,0.151
6,EKVX,0.783
7,LC-2-ad,0.958
8,NCI-H1944,0.687
9,NCI-H1975,0.218
10,RERF-LC-KJ,1.23
11,NCI-H358,0.449
12,NCI-H650,0.803
13,PC-3 [JPC-3],0.63

# Same assay, conditions: first compound 0.03162 µM
row,Cell Line,relative viability
1,NCI-H1755,0.363
2,NCI-H2023,0.849
3,HCC-15,0.258
4,NCI-H1793,0.229
5,EKVX,0.859
6,LC-2-ad,1.05
7,NCI-H1944,0.714
8,NCI-H1975,0.179
9,RERF-LC-KJ,1.25
10,NCI-H358,0.268
11,NCI-H650,0.913

# Same assay, conditions: first compound 0.1 µM
row,Cell Line,relative viability
1,NCI-H1755,0.339
2,NCI-H2023,0.739
3,HCC-15,0.294
4,NCI-H1793,0.175
5,PC-14,0.119
6,EKVX,0.999
7,LC-2-ad,0.978
8,NCI-H1944,0.787
9,NCI-H1975,0.204
10,RERF-LC-KJ,1.32
11,NCI-H358,0.394
12,NCI-H650,0.784
13,PC-3 [JPC-3],0.737

# Same assay, conditions: first compound 0.3162 µM
row,Cell Line,relative viability
1,NCI-H1755,0.606
2,NCI-H2023,0.851
3,HCC-15,0.37
4,NCI-H1793,0.163
5,EKVX,0.782
6,LC-2-ad,1.04
7,NCI-H1944,0.722
8,NCI-H1975,0.237
9,RERF-LC-KJ,1.26
10,NCI-H358,0.372
11,NCI-H650,0.84
12,PC-3 [JPC-3],0.721

# Same assay, conditions: first compound 1 µM
row,Cell Line,relative viability
1,NCI-H1755,0.417
2,NCI-H2023,0.809
3,HCC-15,0.397
4,NCI-H1793,0.196
5,PC-14,0.134
6,EKVX,0.966
7,LC-2-ad,1.07
8,NCI-H1944,0.716
9,NCI-H1975,0.261
10,RERF-LC-KJ,1.31
11,NCI-H358,0.289
12,NCI-H650,0.98
13,PC-3 [JPC-3],0.712

# Compound: CCN1CCN(c2ccc(Nc3cc(N(C)C(=O)Nc4c(Cl)c(OC)cc(OC)c4Cl)ncn3)cc2)CC1 [BGJ398] + C[C@]1(O)C[C@@H](c2nc(-c3ccc4ccc(-c5ccccc5)nc4c3)c3c(N)nccn32)C1 [Linsitinib] (partner 1 µM)
# Assay: as above
# Settings: first compound 0.01 µM
# Method in brief: as §1
row,Cell Line,relative viability
1,NCI-H1755,0.93
2,NCI-H2023,0.602
3,HCC-15,0.981
4,NCI-H1793,0.804
5,PC-14,0.902
6,EKVX,0.776
7,LC-2-ad,0.827
8,NCI-H1944,1.17
9,NCI-H1975,1.08
10,RERF-LC-KJ,0.863
11,NCI-H358,0.631
12,NCI-H650,0.822
13,PC-3 [JPC-3],1.01

# Same assay, conditions: first compound 0.03162 µM
row,Cell Line,relative viability
1,NCI-H1755,1.01
2,NCI-H2023,0.831
3,HCC-15,0.968
4,PC-14,1.05
5,EKVX,0.859
6,LC-2-ad,0.88
7,NCI-H1944,1.22
8,NCI-H1975,1.07
9,RERF-LC-KJ,0.894
10,NCI-H358,0.714
11,NCI-H650,1.01

# Same assay, conditions: first compound 0.1 µM
row,Cell Line,relative viability
1,NCI-H1755,0.983
2,NCI-H2023,0.657
3,HCC-15,0.921
4,NCI-H1793,0.833
5,PC-14,0.902
6,EKVX,1.17
7,LC-2-ad,0.817
8,NCI-H1944,1.28
9,NCI-H1975,1.11
10,RERF-LC-KJ,0.901
11,NCI-H358,0.724
12,NCI-H650,0.959
13,PC-3 [JPC-3],0.959

# Same assay, conditions: first compound 0.3162 µM
row,Cell Line,relative viability
1,NCI-H1755,0.955
2,NCI-H2023,0.688
3,HCC-15,0.981
4,NCI-H1793,0.71
5,PC-14,1
6,EKVX,1.05
7,LC-2-ad,0.87
8,NCI-H1944,1.2
9,NCI-H1975,1.03
10,RERF-LC-KJ,0.865
11,NCI-H358,0.707
12,NCI-H650,0.875
13,PC-3 [JPC-3],0.864

# Same assay, conditions: first compound 1 µM
row,Cell Line,relative viability
1,NCI-H1755,1.01
2,NCI-H2023,0.646
3,HCC-15,0.936
4,NCI-H1793,0.756
5,PC-14,1.06
6,EKVX,1.05
7,LC-2-ad,0.843
8,NCI-H1944,1.28
9,NCI-H1975,0.965
10,RERF-LC-KJ,0.945
11,NCI-H358,0.848
12,NCI-H650,0.909
13,PC-3 [JPC-3],1.01
